Measurements taken from patent US20230035586A1, “Salts of R-ketorolac” (Revere Pharmaceuticals, Inc., priority 2019, published 2023).

How the values were obtained:
[1] = Dynamic Vapor Sorption (DVS) moisture sorption/desorption; type: physicochemical; conditions: for weight gain from 5-75% RH / weight gain from 5-75% RH, moles of H2O / weight gain above 75% RH / weight gain above 75% RH, moles of H2O: DVS sorption; for weight gain above 75% RH / weight gain above 75% RH, moles of H2O: above 75% RH (up to 95% RH); for form change after DVS, based on XRPD: XRPD of post-DVS solids
Protocol: DVS analysis (FIG. 5) was conducted by first equilibrating at ambient RH, and then dropping to 5% RH. It was then increased to 95% RH and cycled back to 5% RH. The sample was held at 5% RH until XRPD analysis. Upon equilibration from ambient RH (-48%) to 5% RH, the sample loses 0.4 wt %, equivalent to ˜0.1 moles of H2O. From 5-75% RH, the material undergoes a 1.2 wt % gain (˜0.25 moles of H2O). Above 75% RH, the material gains ˜12 wt % (˜3 moles of H2O).
The crystalline salt of R-ketorolac and meglumine was analyzed by DVS (FIG. 10). […] Upon equilibration from ambient RH (˜50%) to 5% RH, the sample loses 0.1 wt %, equivalent to <0.1 mole of H2O. From 5-75% RH, the material undergoes a 0.9 wt % gain (˜0.25 moles of H2O). Above 75% RH, the material gains ˜37 wt % (>12 moles of H2O). Upon desorption to 5% RH, which occurs with hysteresis, the sample retains ˜9.6 wt % (˜2.7 moles of H2O).
Moisture sorption/desorption data were collected on a VTI SGA-100 Vapor Sorption Analyzer. NaCl and PVP were used as calibration standards. Samples were not dried prior to analysis. Sorption and desorption data were collected over a range from 5% to 95% RH at 10% RH increments under a nitrogen purge. The equilibrium criterion used for analysis was less than 0.0100% weight change in 5 minutes with a maximum equilibration time of 3 hours. Data were not corrected for the initial moisture content of the samples.

[2] = in vivo; cited from earlier work

Row | SMILES | moisture after desorption to 5% RH (in words) ([1]; DVS desorption to 5% RH, small hysteresis) | weight gain from 5-75% RH [1] | weight gain from 5-75% RH, moles of H2O [1] | weight gain above 75% RH [1] | weight gain above 75% RH, moles of H2O [1] | weight loss upon equilibration from ambient RH to 5% RH ([1]; DVS) | weight loss upon equilibration from ambient RH to 5% RH, equivalent moles of H2O ([1]; DVS) | form change after DVS, based on XRPD [1] | tolerability in rat studies [2] | weight retained upon desorption to 5% RH ([1]; DVS desorption to 5% RH) | weight retained upon desorption to 5% RH, moles of H2O ([1]; DVS desorption to 5% RH) | hygroscopicity above 75% RH ([1]; DVS, above 75% RH) | hygroscopicity below 75% RH ([1]; DVS, below 75% RH)
1 | NC(CO)(CO)CO.O=C(c1ccccc1)c1ccc2n1CC[C@H]2C(=O)O [R-ketorolac tromethamine salt] | all the gained moisture is lost | 1.2 wt % | ~0.25 moles of H2O | ~12 wt % | ~3 moles of H2O | 0.4 wt % | ~0.1 moles of H2O | form change is not observed |  |  |  |  | 
2 | O=C(c1ccccc1)c1ccc2n1CC[C@H]2C(=O)O [R-ketorolac] |  |  |  |  |  |  |  |  | much better tolerated than S-ketorolac |  |  |  | 
3 | O=C(c1ccccc1)c1ccc2n1CC[C@@H]2C(=O)O [S-ketorolac] |  |  |  |  |  |  |  |  | severe dose limiting toxicities |  |  |  | 
4 | CNCC(O)C(O)C(O)C(O)CO.O=C(c1ccccc1)c1ccc2n1CCC2C(=O)O (stereo not drawn) [R-ketorolac meglumine crystalline salt, R-ketorolac meglumine salt] |  | 0.9 wt % | ~0.25 moles of H2O | ~37 wt % | > 12 moles of H2O | 0.1 wt % | < 0.1 moles of H2O | form change is not observed |  | ~9.6 wt % | ~2.7 moles of H2O | highly hygroscopic | limited hygroscopicity
